From US20240239801A1, “PYRIMIDO[5,4,D]PYRIMIDINE COMPOUNDS, COMPOSITIONS COMPRISING THEM AND USES THEREOF” (Université de Montréal, priority 2021, published 2024)

Tests used:
[1] = test system: HCT116 pERK; assay: Phospho-ERK inhibition, AlphaLISA SureFire Ultra p-ERK 1/2; assay type: cell-based, human; settings: Table 2; for IC50: 1 h treatment; for HCT116 (Ymin %): lowest value of the pERK IC50 curve
Method: (§1) All cancer cell lines (A375, A101D, A2058, RKO, HT29 SK-MEL 30, IPC298, HepG2, HCT-116, Lovo, SW620, SW480, NCI-H358, NCI-H2122, Calu-6, NCIH2087, NCIH1755, NCIH1666 and Mewo) were obtained from ATCC and cultured in RPMI-1640 medium (Gibco) supplemented with 5% heat inactivated fetal bovine serum (FBS, Wisent) at 37° C. under 5% CO2. Cells were maintained in T175 flasks (Greiner). They were passaged by removing the culture medium, washing once in 10 mL of room temperature Phosphate Buffered Saline (PBS; Wisent) and incubating at 37° C. with 2 mL of 0.05% Trypsin (Thermo-Fisher). Trypsin was then inactivated by adding complete growth medium and the cells were then replated in a T175 culture dish at the appropriate dilution. All cell lines were routinely tested for mycoplasma contamination. Tissue type and mutational status of each cell line can be found in Table B.
(§2) AlphaLISA® SureFire® Ultra™ p-ERK ½ (Thr202/Tyr204) analysis was conducted on cells plated in 100 μL of complete RPMI-1640 growth medium in 96-well flat-bottomed transparent dishes (Costar) at a density indicated in Table C. Cells were maintained overnight at 37° C. under 5% CO2 before treatment with compounds' dilution series for one hour. The cell density in cells/cm^2 corresponds to cell number divided by the area of one well of a 96-well plate ([…]).
(§3) In a dilution series 100 μL/well of test substance dilution prepared in complete RPMI-1640 growth media was added to the cells. The dilution series is selected so that ten concentrations cover a range from 30 μM or 10 μM to 0.33 nM. If necessary, the initial concentration of 10 μM is increased to 100 μM or lowered to 1 μM (as in the case of A375 and NCIH1666 cells, which are generally more sensitive to the compounds) and further dilution is carried out accordingly. The final concentration of DMSO in the assay is set at 0.5%.
(§4) After treatment, media was removed, and cells were lysed in 50 μL of 1× AlphaScreen Ultra Lysis Buffer (Perkin Elmer). The AlphaLISA® SureFire® Ultra™ p-ERK ½ (Thr202/Tyr2O4) (PerkinElmer) reactions were performed with 5 μL of cell lysate according to the manufacturer's specifications in 384-well proxyplates (Perkin Elmer) followed by overnight incubation of the reactions at room temperature in a humidified chamber. After completion of the reactions, the signals were recorded on an EnVision plate reader (Perkin Elmer) using built in AlphaLISA® settings.
(§5) The effect of each compound dilution on the pERK signal was expressed in % inhibition and calculated as follows. An internal 100% inhibition control (1 μM trametinib, cat. No. HY-10999; MedChem Express; CAS No. 871700-17-3) was included in each plate and used as a measure of pERK background. First, the value obtained for trametinib was subtracted from each data point. The average of DMSO (vehicle) controls (set as 0% inhibition) was established and used to calculate % inhibition:
(§6) The ability of each compound to inhibit pERK signal was expressed as an IC50 value obtained by plotting the inhibition values for each data point of a dilution series and fitting the obtained curves using a log(agonist) versus response−variable slope (four parameters) function using GraphPadPrism (V7.0).
(§7) When present, paradoxical pERK induction is inferred from the negative % inhibition values observed in the pERK IC50 curves of a compound.

[2] = test system: SW480 pERK; assay: as above; assay type: cell-based, human; settings: Table 2; for IC50: 1 h treatment, read-out: SW480 PERK IC50 (UM); for SW480 (Ymin %): lowest value of the pERK IC50 curve
Method: as §1, §2, §3, §4, §5, §6, §7

Row | SMILES | IC50 [1] [µM] | HCT116 (Ymin %) [1] [%] | IC50 [2] [µM] | SW480 (Ymin %) [2] [%]
1 | COc1ccc(S(=O)(=O)Nc2ccc(F)c(Nc3ncnc4cnc(SC)nc34)c2F)cc1OC [Example 2] | 1 to 10 | −14 | 1 to 10 | 5
2 | COC(=O)c1sccc1S(=O)(=O)Nc1ccc(F)c(Nc2ncnc3cnc(SC)nc23)c1F [Example 3] | 1 to 10 | −7 | 1 to 10 | 9
3 | CSc1ncc2ncnc(Nc3c(F)ccc(NS(=O)(=O)c4ccc5c(c4)CCO5)c3F)c2n1 [Example 4] | 1 to 10 | −5 | 1 to 10 | −2
4 | CSc1ncc2ncnc(Nc3c(F)ccc(NS(=O)(=O)c4ccccc4C#N)c3F)c2n1 [Example 5] | 10 to 30 | 8 | 1 to 10 | 8
5 | CSc1ncc2ncnc(Nc3c(F)ccc(NS(=O)(=O)c4ccc5c(c4)OCO5)c3F)c2n1 [Example 6] | 10 to 30 | −10 | 1 to 10 | 1
6 | COc1ccc(S(=O)(=O)Nc2ccc(F)c(Nc3ncnc4cnc(SC)nc34)c2F)c(C#N)c1 [Example 7] | 10 to 30 | 7 | 1 to 10 | 17
7 | COc1ccc(S(=O)(=O)Nc2ccc(F)c(Nc3ncnc4cnc(SC)nc34)c2F)c(F)c1 [Example 8] | 1 to 10 | −3 | 1 to 10 | 15
8 | CSc1ncc2ncnc(Nc3c(F)ccc(NS(=O)(=O)c4ccc(F)cc4C#N)c3F)c2n1 [Example 10] | 10 to 30 | 9 | 1 to 10 | −9
9 | COc1ccc(S(=O)(=O)Nc2ccc(F)c(Nc3ncnc4cnc(SC)nc34)c2F)c(C)c1 [Example 12] | 1 to 10 | −7 | 1 to 10 | −10
10 | COc1ccc(S(=O)(=O)Nc2ccc(F)c(Nc3ncnc4cnc(SC)nc34)c2F)c(C(F)(F)F)c1 [Example 14] | 1 to 10 | −5 | 1 to 10 | −6
11 | CSc1ncc2ncnc(Nc3c(F)ccc(NS(=O)(=O)c4ccc(Cl)cc4Cl)c3F)c2n1 [Example 15] | 10 to 30 | −3 | 10 to 30 | 0
12 | CSc1ncc2ncnc(Nc3c(F)ccc(NS(=O)(=O)c4ccc(Br)cc4F)c3F)c2n1 [Example 16] | 10 to 30 | 1 | 1 to 10 | 3
13 | CSc1ncc2ncnc(Nc3c(F)ccc(NS(=O)(=O)c4ccc(Br)cc4C)c3F)c2n1 [Example 17] | 10 to 30 | 5 | 1 to 10 | 3
14 | CSc1ncc2ncnc(Nc3c(F)ccc(NS(=O)(=O)c4ccc(C)cc4)c3F)c2n1 [Example 18] | 10 to 30 | 4 | 1 to 10 | 11
15 | COc1ccc(S(=O)(=O)Nc2ccc(F)c(Nc3ncnc4cnc(SC)nc34)c2F)c(OC)c1 [Example 19] | 10 to 30 | −4 | 1 to 10 | 4
16 | CSc1ncc2ncnc(Nc3c(F)ccc(NS(=O)(=O)c4ccccc4C)c3F)c2n1 [Example 20] | 1 to 10 | 7 | 1 to 10 | 12
17 | CSc1ncc2ncnc(Nc3c(F)ccc(NS(=O)(=O)c4ccccc4Cl)c3F)c2n1 [Example 21] | 1 to 10 | 2 | 1 to 10 | 9
